The test deals with mice. It is filed as in vivo. As to conditions: for antagonism of the analgesia induced by acetyl L-carnitine: acetyl L-carnitine 100 mg/kg BID SC for 7 days, hot plate; for Hot plate Licking latency: antagonist pre-treatment + PS (no acetyl L-carnitine). On the procedure:
The analgesia induced by the acetyl L-carnitine (100 mg/kg BID, SC for 7 days) was determined in presence of some antagonists of some neurotransmission systems deeply involved in the regulation of pain threshold, and in particular the naloxone (opioid antagonist), the CGP-35348 (GABAB antagonist) and the alpha-methyl-p-tyrosine (inhibitor of the synthesis of cathecolamines).
In agreement with the standard procedures known by the person skilled in the art, the doses used for any antagonist were the minimum required to prevent the analgesia induced by morphine (7 mg/kg SC) (1, 100 e 200 mg/kg IP), baclofen (4 mg/kg SC) and amphetamine (1 mg/kg SC) (non-reported data) respectively.

Setting [1] is: dose (naloxone 1, CGP 35348 100, alpha-M-p-T 200, atropine 5 mg/kg, HC-3 1 μg, pirenzepine 0.1 μg, S-(−)-ET-126 0.1 μg ICV), before treatment.

Structures are written as SMILES. Like-named read-outs stand apart in the source and are kept apart here.

Turning to `CN1[C@@H]2CC[C@H]1C[C@@H](OC(=O)C(CO)c1ccccc1)C2` (some centres unmarked) [Atropine, atropine, reference compound], the “antagonism of the analgesia induced by acetyl L-carnitine” value (shortened to “antagonism of the analgesia induced”) was “capable to antagonize the increase of the pain threshold”. Also, for the setting “after treatment 15 min”, the “Hot plate Licking latency” value is 13.7 ± 1.1 s. For the same compound, the “Hot plate Licking latency” value (after treatment 30 min) came out at 15.4 ± 1.2 s. In addition, the “Hot plate Licking latency” value (after treatment 45 min) is 13.1 ± 1.9 s. For the same compound, the “Hot plate Licking latency” value under setting [1] came to 14.1 ± 0.9 s.
With `CN1CCN(CC(=O)N2c3ccccc3C(=O)Nc3cccnc32)CC1` [Pirenzepine, pirenzepine, reference compound], the “antagonism of the analgesia induced” value is “capable to antagonize the increase of the pain threshold”. In addition, the “Hot plate Licking latency” value (after treatment 15 min) was found to be 13.9 ± 1.5 s. The “Hot plate Licking latency” value (after treatment 30 min) was determined as 14.5 ± 1.8 s. Also, the “Hot plate Licking latency” value (after treatment 45 min) was 15.5 ± 1.5 s. Moreover, the “Hot plate Licking latency” value under setting [1] turned out to be 13.6 ± 0.8 s.
On the same counts, the results for `C[N+]1(C)CCOC(O)(c2ccc(-c3ccc(C4(O)C[N+](C)(C)CCO4)cc3)cc2)C1.[Br-].[Br-]` (centres unmarked) [HC-3, hemicholinium-3, reference compound] are “capable to antagonize the increase of the pain threshold”, 13.7 ± 1.1 s, 15.4 ± 1.2 s, 13.1 ± 1.9 s and 14.1 ± 0.9 s.
With `C=CCN1CC[C@]23c4c5ccc(O)c4O[C@H]2C(=O)CC[C@@]3(O)[C@H]1C5` [Naloxone, naloxone, reference compound], the “Hot plate Licking latency” value by setting is: (after treatment 15 min) 13.3 ± 1.3 s; (after treatment 30 min) 13.1 ± 1.1 s; (after treatment 45 min) 14.2 ± 1.3 s; under setting [1], 14.0 ± 0.7 s.
On the same counts, the results for `CC(N)(Cc1ccc(O)cc1)C(=O)O` (stereo not drawn) [Alpha-M-p-T, alpha-methyl-p-tyrosine, reference compound] are 15.4 ± 1.6 s, 16.1 ± 1.8 s, 13.6 ± 1.5 s and 14.6 ± 0.9 s.
Consider `CN1CCC(OC(=O)[C@H](CO)c2ccccc2)CC1` [S-(−)-ET-126, reference compound], for which the “antagonism of the analgesia induced” value is reported as “capable to antagonize the increase of the pain threshold”. Further, the “Hot plate Licking latency” value (after treatment 15 min) turned out to be 15.3 ± 1.8 s. Moreover, the “Hot plate Licking latency” value (after treatment 30 min) amounted to 16.2 ± 1.9 s. Under “after treatment 45 min”, the “Hot plate Licking latency” value was 16.1 ± 2.0 s. For the same compound, under setting [1], the “Hot plate Licking latency” value amounted to 15.0 ± 1.0 s.
As to `CCOC(OCC)P(=O)(O)CCCN` [CGP 35348, reference compound], the “Hot plate Licking latency” value (after treatment 15 min) came to 12.4 ± 1.0 s, the “Hot plate Licking latency” value (after treatment 30 min) was 12.6 ± 1.3 s, the “Hot plate Licking latency” value (after treatment 45 min) worked out at 12.2 ± 1.6 s and the “Hot plate Licking latency” value under setting [1] worked out at 14.4 ± 0.8 s.
